Numbers after ± are expanded uncertainties.
Columns and labels:
[1] = for mass density: 298.15 K, 101.33 kPa
[2] = refractive index (Na D-line) (dimensionless); settings: 298.15 K; 101.33 kPa; Liquid; Standard Abbe refractometry
[3] = Boiling temperature at pressure P; settings: 101 kPa; Liquid; Distillation

| mass density ([1]; Crystal, Pycnometric method) | Normal melting temperature ([1]; Crystal, visual observation) | SMILES | refractive index [2] | Boiling temperature at pressure P [3] | mass density ([1]; Liquid, Vibrating tube method) |
| --- | --- | --- | --- | --- | --- |
| 1346 ± 3 kg/m3 | 105.70 ± 1.1 °C | Oc1ccccc1O [1,2-benzenediol] |  |  |  |
|  |  | CC(=O)CC(C)C [4-methylpentan-2-one] | 1.3965 ± 0.0008 | 116.60 ± 0.2 °C | 799 ± 2 kg/m3 |

— the NIST ThermoML archive (doi:10.1021/je5005559)
